In patent US7211589B2, “Atisane compounds and use thereof” (Eisai R&D Management Co., Ltd., priority 2001, dated 2007):

What was measured:
[1] = system: cultured cerebral cortex cells; experiment: Effect on glutamate-induced neurotoxicity of cultured cerebral cortex cell (trypan blue survival); assay type: cell-based; settings: test substance 10 μM, 1 h pre-incubation, then glutamic acid 500 μM for 1 h; percentage of living (trypan blue unstained) cells; sham 88.79, glutamic acid alone 26.72
Method: Effect of Atisane Derivative on Glutamate-induced Neurotoxicity of Cultured Cerebral Cortex Cell
Effects of the compounds according to the present invention on survival of cells were studied in the following manners.
(1) After dissolving the compound according to the present invention (test compound) in a small amount of methanol, 2.0 mL serum-free normal medium (Eagle's MEM medium raw powder 9.4 g; NaHCO3 2.0 g; L-glutamine 0.29 g; glucose 1.0 g; and HEPES 2.38 g are dissolved in purified water so that the final volume is 1000 mL) was added so as to make the concentration at 10 μM. After mixing well by vortex, the sample was used for the following bioassay. (2) In Eagle liquid at 37° C., cultured cerebral cortex cells were incubated in the medium containing the test sample (1) for 1 hour, and glutamic acid was added to the medium. After incubating for another 1 hour, the culture was stained with 1.5% trypan blue solution for 10 minutes. […] Using this property, in the present test, the number of cells were counted while determining the cells not having stained by trypan blue as living cells and the cells […] as dead cells. […] More than 200 cells were counted per one cover slip, and a percentage of number of living cells with respect to the total number of counted cells was calculated as survival. […]

[2] = system: cultured cerebral cortex cells; experiment: Effect on nitrogen monoxide (NO)-induced neurotoxicity of cultured cerebral cortex cell (trypan blue survival); assay type: cell-based; settings: test substance 10 μM simultaneously with S-nitrosocysteine 100 μM; percentage of living cells; sham 91.92, S-nitrosocysteine alone 17.30
Method: Effect of Atisane Derivative on Nitrogen Monoxide (NO)-induced Neurotoxicity of Cultured Cerebral Cortex Cell
(1) After dissolving the compound according to the present invention (test compound) in a small amount of methanol, 2.0 mL serum-free normal medium (Eagle's MEM medium raw powder 9.4 g; NaHCO3 2.0 g; […]; glucose 1.0 g; and HEPES 2.38 g are dissolved in purified water so that the final volume is 1000 mL) was added to make the concentration at 10 μM. After mixing well by vortex, the sample was used for the following bioassay. (2) In Eagle liquid at 37° C., cultured cerebral cortex cells were incubated in the medium containing S-nitrosocysteine for 1 hour. At this time, the test sample (1) was treated simultaneously with S-nitrosocysteine. After incubating for another 1 hour, the culture was stained with 1.5% trypan blue solution for 10 minutes. After completion of the staining, cells were fixed in ice-cooled 10% neutral-buffered formalin solution, rinsed with saline, and numbers of living cells and dead cells were counted. The test was conducted using 5 cover slips for every drug treatment, and one group contained 5 cases. More than 200 cells were counted per one cover slip, and a percentage of number of living cells with respect to the total number of counted cells was calculated as survival. (3) Results

C[S+]([O-])C[C@H]1[C@H]2CC[C@@]3(CC[C@H]4[C@@](C)(CCC[C@@]4(C)C(=O)O)[C@@H]3C2)[C@@H]1O (mixture of isomers) [Serofendic acid isomers (1), (2) (approx. 1:2) mixture, ent-15β-Hydroxy-17-methylsulfinyl-16α-atisane-19-oic acid]
Survival of cell [1]: 65.92%
Survival of cell [2]: 76.02%
